# Measurements as given in paper PMC7162861, “Synthesis, cytotoxicity, pharmacokinetic profile, binding with DNA and BSA of new imidazo[1,2-a]pyrazine-benzo[d]imidazol-5-yl hybrids” (Scientific Reports, 2020).
# Assays:
# OVCAR-5 = experiment: NCI cytotoxicity screen, Ovarian Cancer panel; format: cell-based; details: Homo sapiens, single dose 10 µM, negative = lethal, read-out: Percent growth inhibition
# Experimental: (§1) Cytotoxicity was performed at National Cancer Institute (NCI), Bethesda, USA as per their protocols.
# OVCAR-4 = experiment: NCI cytotoxicity screen, Ovarian Cancer panel; format: cell-based; details: Homo sapiens; OVCAR-4; single dose 10 µM; negative = lethal; read-out: Percent growth inhibition
# Experimental: as §1
# SK-OV-3 = experiment: NCI cytotoxicity screen, Ovarian Cancer panel; format: cell-based; details: Homo sapiens, single dose 10 µM, negative = lethal, read-out: Percent growth inhibition
# Experimental: as §1
# OVCAR-8 = experiment: NCI cytotoxicity screen, Ovarian Cancer panel; format: cell-based; details: Homo sapiens, single dose 10 µM, negative = lethal, read-out: Percent growth inhibition
# Experimental: as §1
# NCI/ADR-RES = experiment: NCI cytotoxicity screen, Ovarian Cancer panel; format: cell-based; details: Homo sapiens, single dose 10 µM, negative = lethal, read-out: Percent growth inhibition
# Experimental: as §1
# IGROV1 = experiment: NCI cytotoxicity screen, Ovarian Cancer panel; format: cell-based; details: Homo sapiens, IGROV-1, single dose 10 µM, negative = lethal, read-out: Percent growth inhibition
# Experimental: as §1
# ACHN = experiment: NCI cytotoxicity screen, Renal Cancer panel; format: cell-based; details: Homo sapiens, single dose 10 µM, negative = lethal, read-out: Percent growth inhibition
# Experimental: as §1
# SN12C = experiment: NCI cytotoxicity screen, Renal Cancer panel; format: cell-based; details: Homo sapiens, single dose 10 µM, negative = lethal, read-out: Percent growth inhibition
# Experimental: as §1
# CAKI-1 = experiment: NCI cytotoxicity screen, Renal Cancer panel; format: cell-based; details: Homo sapiens; CAKI-1; single dose 10 µM; negative = lethal; read-out: Percent growth inhibition
# Experimental: as §1
# A498 = experiment: NCI cytotoxicity screen, Renal Cancer panel; format: cell-based; details: Homo sapiens, single dose 10 µM, negative = lethal, read-out: Percent growth inhibition
# Experimental: as §1
# RXF 393 = experiment: NCI cytotoxicity screen, Renal Cancer panel; format: cell-based; details: Homo sapiens, single dose 10 µM, negative = lethal, read-out: Percent growth inhibition
# Experimental: as §1
# UO-31 = experiment: NCI cytotoxicity screen, Renal Cancer panel; format: cell-based; details: Homo sapiens, single dose 10 µM, negative = lethal, read-out: Percent growth inhibition
# Experimental: as §1
# [1] = Experimental log P, shake-flask method; format: physicochemical; details: n-octanol/phosphate buffer pH 7.4, read-out: Exp. Log P
# Experimental: Partition coefficients or experimental log P values of all synthesized compounds (9–23, 30 and 31) were calculated using the shake-flask method. Log P values were determined using n-octanol and phosphate buffer (pH = 7.4) at 10:1 ratio of volumes. Stock solutions (10^−3 M) of compounds were prepared in DMSO. Glass vials were used to make final solutions i.e. stock solution (250 µL) and phosphate buffer (125 µL). To record the absorbance, wavelength was selected based on λmax of the respective compound. Initial absorbance (Ai) for every compound was noted consuming the stock solution in the buffer phase. Now added n-octanol to every vial and shaken well using a mechanical shaker for 50 minutes. To get separation of both phases, glass vials were centrifuged for 35 min. at 2500 rpm. Then, the layer of octanol was separated from glass vial. The final absorbance (Af) of each compound was recorded by using the buffer layer. The values of P for compounds were determined by the following equation (Eq. 8):8 P=Ai−Af/Af×Vw/Vo
# OVCAR-3 = experiment: NCI cytotoxicity screen, Ovarian Cancer panel; format: cell-based, human; details: Homo sapiens; OVCAR-3; single dose 10 µM; negative = lethal; read-out: Percent growth inhibition
# Experimental: as §1
# DU-145 = experiment: NCI cytotoxicity screen, Prostate Cancer panel; format: cell-based, human; details: Homo sapiens, single dose 10 µM, negative = lethal, read-out: Percent growth inhibition
# Experimental: as §1
# PC-3 = experiment: NCI cytotoxicity screen, Prostate Cancer panel; format: cell-based, human; details: Homo sapiens, single dose 10 µM, negative = lethal, read-out: Percent growth inhibition
# Experimental: as §1
# HT29 = experiment: NCI cytotoxicity screen, Colon Cancer panel; format: cell-based; details: Homo sapiens, HT-29; HT29; single dose 10 µM; negative = lethal; read-out: Percent growth inhibition
# Experimental: as §1
# HCT-15 = experiment: NCI cytotoxicity screen, Colon Cancer panel; format: cell-based; details: Homo sapiens, single dose 10 µM, negative = lethal, read-out: Percent growth inhibition
# Experimental: as §1
# HCT-116 = experiment: NCI cytotoxicity screen, Colon Cancer panel; format: cell-based; details: Homo sapiens, single dose 10 µM, negative = lethal, read-out: Percent growth inhibition
# Experimental: as §1
# COLO 205 = experiment: NCI cytotoxicity screen, Colon Cancer panel; format: cell-based; details: Homo sapiens, single dose 10 µM, negative = lethal, read-out: Percent growth inhibition
# Experimental: as §1
# SR = experiment: NCI cytotoxicity screen, Leukemia panel; format: cell-based; details: Homo sapiens, single dose 10 µM, negative = lethal, read-out: Percent growth inhibition
# Experimental: as §1
# HL-60(TB) = experiment: NCI cytotoxicity screen, Leukemia panel; format: cell-based; details: Homo sapiens, HL-60, HL-60(TB); single dose 10 µM; negative = lethal; read-out: Percent growth inhibition
# Experimental: as §1
# CCRF-CEM = experiment: NCI cytotoxicity screen, Leukemia panel; format: cell-based; details: Homo sapiens, single dose 10 µM, negative = lethal, read-out: Percent growth inhibition
# Experimental: as §1
# MOLT-4 = experiment: NCI cytotoxicity screen, Leukemia panel; format: cell-based; details: Homo sapiens, MOLT-4, MOLT-4; single dose 10 µM; negative = lethal; read-out: Percent growth inhibition
# Experimental: as §1
# RPMI-8226 = experiment: NCI cytotoxicity screen, Leukemia panel; format: cell-based; details: Homo sapiens; RPMI-8226; single dose 10 µM; negative = lethal; read-out: Percent growth inhibition
# Experimental: as §1
# K-562 = experiment: NCI cytotoxicity screen, Leukemia panel; format: cell-based; details: Homo sapiens, K562; K-562; single dose 10 µM; negative = lethal; read-out: Percent growth inhibition
# Experimental: as §1
# MDA-MB-468 = experiment: NCI cytotoxicity screen, Breast Cancer panel; format: cell-based; details: Homo sapiens, single dose 10 µM, negative = lethal, read-out: Percent growth inhibition
# Experimental: as §1
# MDA-MB-231/ATCC = experiment: NCI cytotoxicity screen, Breast Cancer panel; format: cell-based; details: Homo sapiens, MDA-MB-231, read-out: Percent growth inhibition
# Experimental: as §1
# MCF7 = experiment: NCI cytotoxicity screen, Breast Cancer panel; format: cell-based; details: Homo sapiens, single dose 10 µM, negative = lethal, read-out: Percent growth inhibition
# Experimental: as §1
# HS 578 T = experiment: NCI cytotoxicity screen, Breast Cancer panel; format: cell-based; details: Homo sapiens; HS 578T; single dose 10 µM; negative = lethal; read-out: Percent growth inhibition
# Experimental: as §1
# T-47D = experiment: NCI cytotoxicity screen, Breast Cancer panel; format: cell-based; details: Homo sapiens, T47D, T-47D; single dose 10 µM; negative = lethal; read-out: Percent growth inhibition
# Experimental: as §1
# BT-549 = experiment: NCI cytotoxicity screen, Breast Cancer panel; format: cell-based; details: Homo sapiens, single dose 10 µM, negative = lethal, read-out: Percent growth inhibition
# Experimental: as §1
# HCC-2998 = experiment: NCI cytotoxicity screen, Colon Cancer panel; format: cell-based, human; details: Homo sapiens; HCC-2998; single dose 10 µM; negative = lethal; read-out: Percent growth inhibition
# Experimental: as §1
# A549/ATCC = experiment: NCI cytotoxicity screen, Non-Small Cell Lung Cancer panel; format: cell-based; details: Homo sapiens; A549/ATCC; single dose 10 µM; negative = lethal; read-out: Percent growth inhibition
# Experimental: as §1
# NCI-H460 = experiment: as above; format: cell-based; details: Homo sapiens, single dose 10 µM, negative = lethal, read-out: Percent growth inhibition
# Experimental: as §1
# HOP-62 = experiment: as above; format: cell-based; details: Homo sapiens, single dose 10 µM, negative = lethal, read-out: Percent growth inhibition
# Experimental: as §1
# EXVX = experiment: as above; format: cell-based; details: Homo sapiens; EXVX; single dose 10 µM; negative = lethal; read-out: Percent growth inhibition
# Experimental: as §1
# NCI-H23 = experiment: as above; format: cell-based, human; details: Homo sapiens, single dose 10 µM, negative = lethal, read-out: Percent growth inhibition
# Experimental: as §1
# NCI-H322M = experiment: as above; format: cell-based, human; details: Homo sapiens, single dose 10 µM, negative = lethal, read-out: Percent growth inhibition
# Experimental: as §1
# NCI-H226 = experiment: as above; format: cell-based, human; details: Homo sapiens, single dose 10 µM, negative = lethal, read-out: Percent growth inhibition
# Experimental: as §1
# NCI-522 = experiment: as above; format: cell-based, human; details: Homo sapiens; NCI-522; single dose 10 µM; negative = lethal; read-out: Percent growth inhibition
# Experimental: as §1
smiles,measurement,setting,value
"c1cn2cc(-c3ccc4c(c3)ncn4C3CCCCC3)nc(-c3ccc4c(c3)ncn4C3CCCCC3)c2n1 [Compound 30, 6,8-bis(1-cyclohexyl-1H-benzo[d]imidazol-5-yl)imidazo[1,2-a]pyrazine]",inhibition at 10 µM,OVCAR-5,< 1%
same,inhibition at 10 µM,OVCAR-4,< 1%
same,inhibition at 10 µM,SK-OV-3,11.8%
same,inhibition at 10 µM,OVCAR-8,11.6%
same,inhibition at 10 µM,NCI/ADR-RES,4.12%
same,inhibition at 10 µM,IGROV1,< 1%
same,inhibition at 10 µM,ACHN,4.08%
same,inhibition at 10 µM,SN12C,13.9%
same,inhibition at 10 µM,CAKI-1,9.21%
same,inhibition at 10 µM,A498,< 1%
same,inhibition at 10 µM,RXF 393,4.3%
same,inhibition at 10 µM,UO-31,26.8%
same,logP,[1],2.16
same,inhibition at 10 µM,OVCAR-3,< 1%
same,inhibition at 10 µM,DU-145,6.22%
same,inhibition at 10 µM,PC-3,27.9%
same,inhibition at 10 µM,HT29,28.1%
same,inhibition at 10 µM,HCT-15,26%
same,inhibition at 10 µM,HCT-116,15.9%
same,inhibition at 10 µM,COLO 205,< 1%
same,melting point,,205 to 209 °C
same,inhibition at 10 µM,SR,17.1%
same,inhibition at 10 µM,HL-60(TB),32.9%
same,inhibition at 10 µM,CCRF-CEM,35.1%
same,inhibition at 10 µM,MOLT-4,43.6%
same,inhibition at 10 µM,RPMI-8226,52.2%
same,inhibition at 10 µM,K-562,47.2%
same,inhibition at 10 µM,MDA-MB-468,3.28%
same,inhibition at 10 µM,MDA-MB-231/ATCC,16.8%
same,inhibition at 10 µM,MCF7,23.9%
same,inhibition at 10 µM,HS 578 T,18.9%
same,inhibition at 10 µM,T-47D,34.7%
same,inhibition at 10 µM,BT-549,5.9%
same,inhibition at 10 µM,HCC-2998,< 1%
same,inhibition at 10 µM,A549/ATCC,4.93%
same,inhibition at 10 µM,NCI-H460,1.35%
same,inhibition at 10 µM,HOP-62,20.8%
same,inhibition at 10 µM,EXVX,9.56%
same,inhibition at 10 µM,NCI-H23,4.61%
same,inhibition at 10 µM,NCI-H322M,< 1%
same,inhibition at 10 µM,NCI-H226,13.1%
same,inhibition at 10 µM,NCI-522,17.7%
